According to ChEMBL document CHEMBL3853355, “Six new compounds from Atractylodes lancea and their hepatoprotective activities” (2016):

System: HepG2
Test: Hepatoprotective activity against N-acetyl-p-aminophenol-induced cell injury in human HepG2 cells assessed as cell survival at 10 uM after 48 hrs by MTT assay (reference value: 39.87%)
Type: functional
Settings: HepG2, 48 h, read-out: Survival

| Compound | viability at 10 µM |
| --- | --- |
| C/C(=C\Cc1cc(C(=O)O)cc2c1O[C@H](C(C)(C)O)[C@H]2O)CO | 53.6% |
| COc1cc(-c2coc3c([C@@H]4O[C@H](CO)[C@@H](O)[C@H](O)[C@H]4O)c(O)ccc3c2=O)ccc1O | 45.2% |
| C[C@@H]1O[C@@H](Oc2ccc(C(=O)O)cc2)[C@H](O)[C@H](O[C@@H]2O[C@H](CO)[C@@H](O)[C@H](O)[C@H]2O)[C@H]1O | 54.7% |
| COc1cc(C(=O)O)ccc1O[C@@H]1O[C@@H](C)[C@H](O)[C@@H](O[C@@H]2O[C@H](CO)[C@@H](O)[C@H](O)[C@H]2O)[C@H]1O | 54.6% |
| COC(=O)c1cc(OC)c2c(c1-c1c(CO)cc(OC)c3c1OCO3)OCO2 [BICYCLOL] | 52.9% |
| O=c1c(-c2ccc(O)cc2)coc2c([C@@H]3O[C@H](CO)[C@@H](O)[C@H](O)[C@H]3O)c(O)ccc12 [PUERARIN] | 41.3% |
